Consider three compounds from patent publication US20040214158A1, “Treatment of human papillomavirus (hpv)-infected cells” (priority 2000, published 2004).

Data set [1] deals with CaSki cells. As to the kind of experiment: MTS cell proliferation assay, GCV/ACV on transfected CaSki cells. The following applies: for effect on cell viability: CaSki cells mock-transfected or transfected with control plasmid pNSGL0; for growth inhibition: CaSki cells transfected with HPV 16 LCR-driven HSV 1-TK plasmid, 20-30 μg/ml for 6-8 days. On the procedure: All transfections were performed by calcium phosphate mediated transfection using the Profection Mammalian Transfection Systems (Promega, Wis.) according to the manufacturer's instructions. Cells were seeded at a density of 2×10^5 cells in each well in two mls of DMEM and grown to 50-60% confluence. One μg of plasmid DNA was used for transfecting each cell line. The calcium phosphate-DNA mix was overlaid on the cells for four to six hours and then replaced by two mls of complete medium. For mock-transfections, no DNA was added to the calcium phosphate transfection reagent. To measure promoter activity with a standard luciferase assay (Promega, Wis.) the transfected cells were harvested after 24-48 hours. To analyze HSV 1-TK gene expression by RT-PCR, the transfected cells were harvested 48-60 hours after transfection.
The CaSki, SiHa, HSC3 and HeLa cell lines were transfected with the pNSGLTK-8 or pNSGL0 plasmids or mock transfected with no plasmid. […] The absorbance at 490 nm is a measure of the number of living cells in the culture. Percent survival was calculated as follows: [formula]

Data set [2] concerns CaSki cells. As to the kind of experiment: TUNEL apoptosis detection in transfected CaSki cells. The data set is classed as cell-based, human. The text has this:
(§1) The DeadEnd Colorimetric Apoptosis Detection System (Promega, Wis.) is a modified TUNEL (TdT-mediated dUTP Nick-End Labeling) assay in which the enzyme Terminal deoxynucleotidyl Transferase (TdT) incorporates biotinylated nucleotides at the 3′-OH DNA ends (1, 20). Streptavidin horseradish-peroxidase is then bound to the biotinylated nucleotides, which are detected by hydrogen peroxide and diaminobenzidine (DAB), a stable chromogen. Using this procedure, apoptotic nuclei stained dark brown when visualized under a light microscope.

In another data set the test system is untransfected cell lines. As to the kind of experiment: TUNEL staining of untransfected cell lines. It counts as cell-based. The following applies: 20.0 μg/ml, six to eight days (data not shown).
Text: as §1

For data set [3], the system named is SiHa cells. In words: MTS cell proliferation assay, GCV on transfected SiHa cells. It counts as cell-based, human. The note with it: SiHa cells transfected with pNSGLTK-8, 20.0 μg/ml. The protocol: (§2) Percent survival was calculated as follows: [formula]
Background: Tetrazolium dyes change colour on reduction, which living cells bring about.

The next data set deals with HeLa cells. As to the kind of experiment: GCV killing of transfected HeLa cells. It counts as cell-based, human. The following applies: HeLa cells transfected with pNSGLTK-8; 20.0 μg/ml, two weeks (data not shown). On the procedure: as §2
In another data set the test system is HSC3 cells. In words: GCV cytotoxicity on transfected HSC3 cells. The following applies: HSC3 cells transfected with pNSGLTK-8; different concentrations, 6 days. It counts as cell-based, human. The protocol: as §2
Data set [4] concerns VERO—African Green Monkey kidney cell line. As to the kind of experiment: GCV cytotoxicity on transfected VERO cells. The note with it: VERO cells transfected with pNSGLTK-8; different concentrations, 6 days. The data set is classed as cell-based. From the text: (§3) To test the specificity of the methods described herein, an HPV positive cell line (CaSKi) and four HPV-negative cell lines were transfected with the plasmid plasmid pNSGLTK-8 described herein.

Data set [5] deals with Human oral squamous cell carcinoma cell, SSC9. In words: GCV cytotoxicity on transfected SSC9 cells. The data set is classed as cell-based. The following applies: SSC9 cells transfected with pNSGLTK-8; different concentrations, 6 days.
Text: as §3

For data set [6], the system named is SiHa cells. In words: TUNEL apoptosis detection in transfected SiHa cells. It counts as cell-based, human. The following applies: SiHa cells transfected with pNSGLTK-8; 20.0 μg/ml GCV, eight to ten days.
Text: as §1

In data set [7] the test system is CaSki cells. In words: Confocal microscopy of HSV1-TK protein and PI nuclear staining in transfected CaSki cells. It counts as cell-based, human. The note with it: CaSki cells transfected with pNSGLTK-8; 20 ug/ml GCV for 2 days. On the procedure:
CaSki cells were transfected with HPV16 LCR driven HSV1-TK construct (pNSGLTK-8). After 48 hours, cell were fixed and HSV-TK protein was detected using polyclonal rabbit anti-HSV1-TK antibody and FITC-conjugated goat anti-rabbit secondary antibody. The nuclear staining was done with propidium iodide. The cells were examined by confocal microscopy.
Cell were fixed and HSV1-TK protein was detected using polyclonal rabbit anti-HSV1-TK antibody and FITC-conjugated goat anti-rabbit secondary antibody. The nuclear staining was done with propidium iodide. The cells were examined by confocal microscopy.

The conditions of data set [8]: taken orally by patients, clinical trials (Sugawara et al. 2000); cited from earlier work.

Regarding `Nc1nc2c(ncn2COCCO)c(=O)[nH]1` [ACV, acyclovir], in the data set with CaSki cells [1], the “effect on cell viability” value is recorded as “refractory” and the growth inhibition result is “approximately 80%”. For the same compound, the “concentration showing cytotoxic effects” value in the data set with CaSki cells [1] (CaSki cells transfected with pNSGLTK-8, ten days exposure) is 30000 ng/mL. Also, in the data set with CaSki cells [2] (cells transfected with pNSGLTK-8, 20.0 μg/ml ACV, six days (FIG. 12: CaSki)), the “apoptosis (TUNEL staining, morphology)” value was “Typical apoptotic morphology of TUNEL-stained nuclei”. For the same compound, the “apoptotic cells (TUNEL staining)” value in the data set with untransfected cell lines is “did not show an increase in apoptotic cells”.
For the compound `Nc1nc(O)c2ncn(COC(CO)CO)c2n1` [GCV, ganciclovir], the cytotoxicity result in the data set with CaSki cells [1] (CaSKi cells transfected with pNSGLTK-8, 6 days exposure) is reported as “cytotoxicity is restricted to HPV positive cell line CaSKi only”. Further, the “effect on cell viability” value in the data set on CaSki cells [1] is on record as “No significant effect on cell viability”. The growth inhibition result in the data set on CaSki cells [1] is reported as “approximately 80%”. For the same compound, the “effect on cell viability, dose dependence” value with CaSki cells [1] (CaSki cells transfected with pNSGLTK-8, 0, 5, 10, 20 μg/ml GCV, six days) was “dose-dependent effect”. Besides, the cells killed result with CaSki cells [1] (CaSki cells transfected with pNSGLTK-8, 20.0 μg/ml, 10 days) was “more than 95%”; in the data set with SiHa cells [3] (six days) it was “approximately 42%”; with SiHa cells [3] (two weeks (data not shown)), “more than 90%”; in the data set on HeLa cells it was “more than 90%”. Also, the maximal cell death entry with CaSki cells [1] (CaSki cells transfected with pNSGLTK-8, 20.0 μg/ml, six days) is given as “approximately 80%”. The cytotoxic effect result (in the data set on HSC3 cells; in data set [4]; in data set [5]) was “did not show any significant cytotoxic effect” throughout. In addition, the “apoptosis (TUNEL staining, morphology)” value is “characteristic apoptotic morphology” in the data set with CaSki cells [2] (CaSki cells transfected with pNSGLTK-8, 20.0 μg/ml GCV, four days) and “significant cell death associated with typical apoptotic morphology” in the data set on SiHa cells [6]. Further, the “apoptotic cells (TUNEL staining)” value with untransfected cell lines is on record as “did not show an increase in apoptotic cells”. Besides, the “nuclear staining by PI” value in the data set on CaSki cells [7] was “majority of nuclei look disrupted due to early apoptosis”.
In the case of `CC(C)[C@H](N)C(=O)OCC(CO)OCn1cnc2c(=O)nc(N)[nH]c21` (stereo partly shown) [valganciclovir], in data set [8], the bioavailability entry is listed as “enhance the bioavailability of ganciclovir”.
